In brackets after ≈: the same amount, converted by molar mass. Several values for one entry are separate records, joined by “and”; a condition that tells them apart may be missing. Equal values may be shown once.
Legend:
[1] = system: Mycobacterium tuberculosis H37Rv; experiment: Time-kill assay (CFU counting); format: cell-based; conditions: for CFUs /ml (10^6) h0: h0 (start of treatment); for Relative CFUs (log10) h72: h72 relative to h0
[2] = system: Mycobacterium tuberculosis H37Rv; experiment: Minimum Inhibitory Concentration 50 (MIC50) determination; format: cell-based; conditions: OD600 growth inhibition, 72 hours, 7H9-rich media
[3] = system: Mycobacterium tuberculosis H37Rv; conditions: compared with other frontline drugs; stated as known; cited from earlier work

SMILES: CC(C)/N=c1\cc2n(-c3ccc(Cl)cc3)c3ccccc3nc-2cc1Nc1ccc(Cl)cc1 [CFZ, Clofazimine]
- CFUs /ml (10^6) h0 ([1]; 0.0728 µg/ml): 239 CFUs /ml (10^6) and 141 CFUs /ml (10^6) and 148 CFUs /ml (10^6)
- CFUs /ml (10^6) h24 ([1]; 0.0728 µg/ml): 116 CFUs /ml (10^6) and 112 CFUs /ml (10^6) and 124 CFUs /ml (10^6)
- CFUs /ml (10^6) h72 ([1]; 0.0728 µg/ml): 176 CFUs /ml (10^6) and 192 CFUs /ml (10^6) and 207 CFUs /ml (10^6)
- Relative CFUs (log10) h72 ([1]; 0.0728 µg/ml): -0.133 log10 and 0.134 log10 and 0.146 log10
- CFUs /ml (10^6) h0 ([1]; 0.728 µg/ml): 158 CFUs /ml (10^6) and 182 CFUs /ml (10^6) and 101 CFUs /ml (10^6)
- CFUs /ml (10^6) h24 ([1]; 0.728 µg/ml): 87 CFUs /ml (10^6) and 69 CFUs /ml (10^6) and 67 CFUs /ml (10^6)
- CFUs /ml (10^6) h72 ([1]; 0.728 µg/ml): 41 CFUs /ml (10^6) and 26 CFUs /ml (10^6) and 52 CFUs /ml (10^6)

SMILES: CO[C@H]1/C=C/O[C@@]2(C)Oc3c(C)c(O)c4c(O)c(c(/C=N/N5CCN(C)CC5)c(O)c4c3C2=O)NC(=O)/C(C)=C\C=C\[C@H](C)[C@H](O)[C@@H](C)[C@@H](O)[C@@H](C)[C@H](OC(C)=O)[C@@H]1C [RIF, Rifampicin]
- MIC50 [2]: 0.02 µg/mL (≈ 0.0243 µM)

SMILES: COc1c(N2C[C@@H]3CCCN[C@@H]3C2)c(F)cc2c(=O)c(C(=O)O)cn(C3CC3)c12 [MXF, Moxifloxacin hydrocholoride]
- CFUs /ml (10^6) h0 ([1]; 0.075 µg/ml): 69 CFUs /ml (10^6) and 53 CFUs /ml (10^6) and 72 CFUs /ml (10^6)
- CFUs /ml (10^6) h24 ([1]; 0.075 µg/ml): 90 CFUs /ml (10^6) and 88 CFUs /ml (10^6) and 80 CFUs /ml (10^6)
- CFUs /ml (10^6) h72 ([1]; 0.075 µg/ml): 159 CFUs /ml (10^6) and 165 CFUs /ml (10^6) and 147 CFUs /ml (10^6)
- Relative CFUs (log10) h72 ([1]; 0.075 µg/ml): 0.363 log10 and 0.493 log10 and 0.31 log10
- CFUs /ml (10^6) h0 ([1]; 0.3 µg/ml): 43 CFUs /ml (10^6) and 50 CFUs /ml (10^6)
- CFUs /ml (10^6) h72 ([1]; 0.3 µg/ml): 0.1 CFUs /ml (10^6)
- Relative CFUs (log10) h72 ([1]; 0.3 µg/ml): -2.633 log10 and -2.699 log10
- MIC50 [2]: 0.07 µg/mL (≈ 0.174 µM)

SMILES: CC(=O)NC[C@H]1CN(c2ccc(N3CCOCC3)c(F)c2)C(=O)O1 [LZD, Linezolid]
- CFUs /ml (10^6) h0 ([1]; 0.0844 µg/ml): 81 CFUs /ml (10^6) and 100 CFUs /ml (10^6) and 98 CFUs /ml (10^6)
- CFUs /ml (10^6) h24 ([1]; 0.0844 µg/ml): 135 CFUs /ml (10^6) and 147 CFUs /ml (10^6) and 127 CFUs /ml (10^6)
- CFUs /ml (10^6) h72 ([1]; 0.0844 µg/ml): 249 CFUs /ml (10^6) and 245 CFUs /ml (10^6) and 239 CFUs /ml (10^6)
- Relative CFUs (log10) h72 ([1]; 0.0844 µg/ml): 0.488 log10 and 0.389 log10 and 0.387 log10
- CFUs /ml (10^6) h0 ([1]; 0.844 µg/ml): 61 CFUs /ml (10^6) and 68 CFUs /ml (10^6) and 60 CFUs /ml (10^6)
- CFUs /ml (10^6) h24 ([1]; 0.844 µg/ml): 63 CFUs /ml (10^6) and 74 CFUs /ml (10^6) and 92 CFUs /ml (10^6)
- CFUs /ml (10^6) h72 ([1]; 0.844 µg/ml): 71 CFUs /ml (10^6) and 86 CFUs /ml (10^6) and 72 CFUs /ml (10^6)
- Relative CFUs (log10) h72 ([1]; 0.844 µg/ml): 0.066 log10 and 0.102 log10 and 0.079 log10
- MIC50 [2]: 1.13 µg/mL (≈ 3.35 µM)

SMILES: COc1nc2ccc(Br)cc2cc1[C@@H](c1ccccc1)[C@@](O)(CCN(C)C)c1cccc2ccccc12 [BDQ, Bedaquiline]
- speed of killing of Mycobacterium tuberculosis [3]: kills Mycobacterium tuberculosis relatively slowly
- CFUs /ml (10^6) h0 ([1]; 1.15 µg/ml): 61 CFUs /ml (10^6) and 69 CFUs /ml (10^6) and 72 CFUs /ml (10^6)
- CFUs /ml (10^6) h24 ([1]; 1.15 µg/ml): 91 CFUs /ml (10^6) and 96 CFUs /ml (10^6) and 101 CFUs /ml (10^6)
- CFUs /ml (10^6) h72 ([1]; 1.15 µg/ml): 352 CFUs /ml (10^6) and 362 CFUs /ml (10^6) and 346 CFUs /ml (10^6)
- Relative CFUs (log10) h72 ([1]; 1.15 µg/ml): 0.761 log10 and 0.72 log10 and 0.682 log10
- CFUs /ml (10^6) h0 ([1]; 5.75 µg/ml): 55 CFUs /ml (10^6) and 53 CFUs /ml (10^6) and 61 CFUs /ml (10^6)
- CFUs /ml (10^6) h24 ([1]; 5.75 µg/ml): 97 CFUs /ml (10^6) and 81 CFUs /ml (10^6) and 100 CFUs /ml (10^6)
- CFUs /ml (10^6) h72 ([1]; 5.75 µg/ml): 115 CFUs /ml (10^6) and 132 CFUs /ml (10^6) and 96 CFUs /ml (10^6)
- Relative CFUs (log10) h72 ([1]; 5.75 µg/ml): 0.32 log10 and 0.396 log10 and 0.197 log10
- MIC50 [2]: 1.61 µg/mL (≈ 2.9 µM)

SMILES: NNC(=O)c1ccncc1 [INH, Isoniazid]
- CFUs /ml (10^6) h24 ([1]; 0.018 µg/ml): 182 CFUs /ml (10^6) and 160 CFUs /ml (10^6) and 171 CFUs /ml (10^6)
- CFUs /ml (10^6) h72 ([1]; 0.018 µg/ml): 184 CFUs /ml (10^6) and 194 CFUs /ml (10^6) and 203 CFUs /ml (10^6)
- CFUs /ml (10^6) h0 ([1]; 0.18 µg/ml): 93 CFUs /ml (10^6) and 77 CFUs /ml (10^6) and 70 CFUs /ml (10^6)
- CFUs /ml (10^6) h24 ([1]; 0.18 µg/ml): 60 CFUs /ml (10^6) and 90 CFUs /ml (10^6)
- CFUs /ml (10^6) h72 ([1]; 0.18 µg/ml): 78 CFUs /ml (10^6) and 97 CFUs /ml (10^6) and 70 CFUs /ml (10^6)
- Relative CFUs (log10) h72 ([1]; 0.18 µg/ml): -0.076 log10 and 0.1 log10 and 0 log10
- CFUs /ml (10^6) h0 ([1]; 0.36 µg/ml): 159 CFUs /ml (10^6) and 180 CFUs /ml (10^6) and 187 CFUs /ml (10^6)
- CFUs /ml (10^6) h72 ([1]; 0.36 µg/ml): 0.1 CFUs /ml (10^6)
- Relative CFUs (log10) h72 ([1]; 0.36 µg/ml): -3.201 log10 and -3.255 log10 and -3.272 log10
- CFUs /ml (10^6) h0 ([1]; 1.8 µg/ml): 77 CFUs /ml (10^6) and 68 CFUs /ml (10^6) and 87 CFUs /ml (10^6)
- CFUs /ml (10^6) h72 ([1]; 1.8 µg/ml): 0.1 CFUs /ml (10^6)
- Relative CFUs (log10) h72 ([1]; 1.8 µg/ml): -2.886 log10 and -2.833 log10 and -2.94 log10
- MIC50 [2]: 0.2 µg/mL (≈ 1.46 µM)

SMILES: O=[N+]([O-])c1cn2c(n1)OC[C@@H](OCc1ccc(OC(F)(F)F)cc1)C2 [PA824, Pretomanid]
- MIC50 [2]: 0.15 µg/mL (≈ 0.418 µM)

— patent US20230298697A1, “DETERMINING VIABILITY AND TREATMENT OF DISEASE AGENTS” (priority 2022, published 2023)
